Marks after values point to notes of the source that are not given here.

The test system of one data set is weaned piglets. As to the kind of experiment: Breeding test: production performance of weaned piglets. In kind it is in vivo, Duroc×Landrace×Yorkshire cross-bred weaned piglets. Particulars: for ADFI (g/d*each pig) / ADG (g/d*each pig) / FCR: weaned piglets, 45 ppm in basal daily ration, 40 days; for increase of the average daily gain of the test pigs: compared with the control group, not significant. The text has this:
From 95 litters of 28±2 days old Duroc×Landrace×Yorkshire cross-bred weaned piglets, 360 clinically healthy piglets with similar body weights were selected as test pigs, which were randomly divided into 12 groups, with 3 replications per group and 10 pigs (half of male and female) per replication. The piglets were attracted to the food trough at the age of 7 days, and the hog house for 28-day-old weaned pigs has a cement floor, steel fence, good ventilation, and suitable temperature. The pigpens and utensils were sterilized before the test.
During the test period, the test pigs were free-stall housed in the same pigpen under the same feeding and management conditions, and were free to drink water and eat feed. The hog house was cleaned once a day, and the floor is washed once every three days to maintain clean and hygienic conditions. The test pigs were fed three times a day. The test groups include control and test groups. Group I is the control group, in which only the basal daily ration was fed to the piglets. […] 1000 ppm of a the aspartic acid derivative metal ion salt was added into the basal daily ration for the piglets in the groups VIII-XII, as shown in Table 2. No other antioxidant ingredients or growth promoters were added for the test groups during the entire feeding process. The test period was 40 days.
The test pigs were weighed during 7:00 to 9:00 in the morning of Day 0 and Day 40 after the start of the test. During the test period, the feed intake and health status of the piglets were observed every day, the remaining daily ration was weighed, the feed consumption was recorded, and the average daily feed intake (ADFI, g/d*each pig), the average daily gain (ADG, g/d*each pig), and the feed conversion ratio (FCR) were calculated. Calculation formulas are as follows: […]
(§1) The test data was statistically analyzed using SPSS18 software. First, a one-way analysis of variance (ANOVA) was performed on the data. If the difference between treatments is significant, Duncan's method was used for multiple comparisons, and the significance level was 0.05.

Data set [1] is described as follows: Thermal stability of compounds at 60° C. (HPLC content of raw material and 2% premix). In kind it is physicochemical. The following applies: for Detection result of the content of test sample (%) Day 5: Day 5, relative to Day 0; for Detection result of the content of test sample (%) Day 10: Day 10, relative to Day 0. On the procedure: The variations of the contents of the main ingredient of the aspartic acid derivative raw material and the main ingredient of a premix containing 2% mass fraction of the aspartic acid derivative (hereinafter referred to as 2% premix) over time were investigated under the conditions of stability test at 60° C.
Experimental apparatus: drug stability incubator, Waters high-performance liquid chromatograph (HPLC), etc.
Test samples: N-carbamoyl-DL-aspartic acid (compound 1), diethyl N-carbamoyl-DL-aspartate (compound 2), Sodium N-carbamoyl-DL-aspartate (compound 3), Calcium N-carbamoyl-DL-aspartate (compound 4), Zinc N-carbamoyl-DL-aspartate (compound 5), Copper N-carbamoyl-DL-aspartate (compound 6), Iron N-carbamoyl-DL-aspartate (compound 7), N-glycyl-DL-aspartic acid (compound 8), N-(4-aminobutyryl)-DL-aspartic acid (compound 9), N-(10-aminodecanoyl)-DL-aspartic acid (compound 10), N-(14-aminomyristoyl)-DL-aspartic acid (compound 11).
Preparation of standard solution: 50 mg of the test sample raw material was ultrasonically dissolved in 50 mL of water to obtain a working reserve solution. An appropriate amount of the working reserve solution was taken and diluted with water respectively to concentrations of 125 ppm, 250 ppm, 500 ppm, and 1000 ppm for HPLC testing. It was checked whether the sample concentrations are in a linear relationship with the peak area response values in HPLC, and a standard curve was established.
Preparation of test solution: An appropriate amount of the test sample raw material and an appropriate amount of a premix containing 2% mass fraction of the test sample (hereinafter referred to as 2% premix) were separately ultrasonically dissolved in an appropriate amount of water to form a 1000 ppm solution, which is filtered through a 0.22 µm filter membrane and then analyzed by HPLC.
HPLC analysis conditions: chromatographic column: Waters C18 column (250 mm×4.6 mm, 5 μm); mobile phase: 0.05% phosphoric acid:methanol=95:5 (v:v) (raw material); 0.05% phosphoric acid: methanol (gradient elution); methanol: 5%→40% (0-15 min) curve 6, 40%→5% (15-16 min) curve 1, 5% (16-23 min) curve 1, (premix, feed); detection wavelength: 210 nm; column temperature: 25° C.; sample size: 20 μL; flow rate: 1 mL/min.
Test method: The test sample raw material and its 2% premix were placed in a culture plate, spread into a thin layer of <5 mm, and placed at 60° C. Samples were taken on the day 5 and ? day 10 for HPLC detection. Each sample was sampled three times in parallel.

The test system of another data set is laying hens. As to the kind of experiment: Breeding test: production performance of laying hens. In kind it is in vivo, Jingbai laying hens. The following applies: 158 days; for ADFI / EPR (%) / EW (g): 500 ppm in basal daily ration; for feed-to-egg ratio: Table 4, 500 ppm in basal daily ration.
Excerpt: The test adopted a single-factor random design. 420 147-day-old Jingbai laying hens with similar body weights were selected and randomly divided into 7 treatment groups, with 3 replications per group and 20 Jingbai laying hens (half of male and female) per replication. The poultry houses and utensils were sterilized before the test. During the test period, the Jingbai laying hens were cage cultured in the same laying poultry house under the same feeding and management conditions. The basal daily ration was mainly corn-soybean meal, and no other antioxidant ingredients or growth promoters were added additionally during the entire feeding process. The test groups include a control group and test groups I-VII. The basal daily ration was fed for the control group I only, and 500 ppm of different aspartic acid derivatives were added into the basal daily ration for the test groups II-VII, as shown in Table 3. The pre-feeding period was 10 days, and the test period was 158 days. The test laying hens were free to drink water and eat feed, and were fed twice a day.
Parameter statistics: During the test period, taking each repetition as a unit, the total egg number, the egg production, and the feed intake were recorded every day, and the egg production rate (EPR), the average daily feed intake (ADFI, g/d), the egg weight (EW, g) and the feed-to-egg ratio (FER) of the laying hens during the entire test were calculated.
Calculation formulas are as follows: […]
as §1

As for `CCOC(=O)CC(NC(N)=O)C(=O)OCC` (racemic) [Compound 2, diethyl N-carbamoyl-DL-aspartate], in the data set on weaned piglets, the “ADFI (g/d*each pig)” value is 374 ± 11^b g/d*each pig, the “ADG (g/d*each pig)” value is 176 ± 2^d g/d*each pig and the FCR was determined as 2.13 ± 0.05. In data set [1] (2% premix), the “Detection result of the content of test sample (%) Day 5” value (from here on “Detection result … (%) Day 5”) was 98.81% and the “Detection result of the content of test sample (%) Day 10” value (“Detection result … (%) Day 10” below) was 98.09%. Besides, in data set [1] (Raw material), the “Detection result … (%) Day 5” value was determined as 97.32% and the “Detection result … (%) Day 10” value worked out at 96.97%. Besides, in the data set with laying hens, the “ADFI” value amounted to 115.19 ± 3.14 g/day, the “EPR (%)” value is 86.28 ± 0.20^b %, the “EW (g)” value was 55.94 ± 0.37^b g and the feed-to-egg ratio worked out at 2.06 ± 0.04.
Consider `NCCCCCCCCCC(=O)NC(CC(=O)O)C(=O)O` (racemic) [Compound 10, N-(10-aminodecanoyl)-DL-aspartic acid], for which, in the data set on weaned piglets, the “ADFI (g/d*each pig)” value was 321 ± 7^a g/d*each pig, the “ADG (g/d*each pig)” value is reported as 150 ± 1^bc g/d*each pig and the FCR was found to be 2.14 ± 0.06. Moreover, in data set [1] (2% premix), the “Detection result … (%) Day 5” value came to 98.55% and the “Detection result … (%) Day 10” value turned out to be 97.81%. For the same compound, in data set [1] (Raw material), the “Detection result … (%) Day 5” value is given as 99.00% and the “Detection result … (%) Day 10” value amounted to 96.73%. In addition, in the data set on laying hens, the “ADFI” value stood at 119.31 ± 1.84 g/day, the “EPR (%)” value is on record as 85.24 ± 0.18^c %, the “EW (g)” value was 57.45 ± 0.47^c g and the feed-to-egg ratio was determined as 2.08 ± 0.03.
Consider `NCCCCCCCCCCCCCC(=O)NC(CC(=O)O)C(=O)O` (racemic) [Compound 11, N-(14-aminomyristoyl)-DL-aspartic acid], for which, in the data set on weaned piglets, the “ADFI (g/d*each pig)” value is listed as 322 ± 16^a g/d*each pig, the “ADG (g/d*each pig)” value is 150 ± 4^bc g/d*each pig and the FCR is 2.14 ± 0.05. Moreover, in data set [1] (2% premix), the “Detection result … (%) Day 5” value was 98.22% and the “Detection result … (%) Day 10” value was 97.80%. In addition, in data set [1] (Raw material), the “Detection result … (%) Day 5” value amounted to 97.61% and the “Detection result … (%) Day 10” value came out at 95.93%. Further, in the data set on laying hens, the “ADFI” value stood at 115.13 ± 2.91 g/day, the “EPR (%)” value is 85.24 ± 0.17^c %, the “EW (g)” value is reported as 55.45 ± 0.35^b g and the feed-to-egg ratio was 2.08 ± 0.04.
Turning to `NC(=O)NC(CC(=O)O)C(=O)O` (racemic) [Compound 1, N-carbamoyl-DL-aspartic acid], in the data set with weaned piglets, the “increase of the average daily gain of the test pigs” value (“increase” below) was found to be 7.0%, the “ADFI (g/d*each pig)” value is recorded as 315 ± 14^a g/d*each pig, the “ADG (g/d*each pig)” value is on record as 145 ± 10^abc g/d*each pig and the FCR amounted to 2.18 ± 0.05. Besides, in data set [1] (2% premix), the “Detection result … (%) Day 5” value worked out at 99.66% and the “Detection result … (%) Day 10” value is 99.70%. In data set [1] (Raw material), the “Detection result … (%) Day 5” value is 99.79% and the “Detection result … (%) Day 10” value was determined as 99.28%. In the data set with laying hens, the “ADFI” value was 113.44 ± 1.55 g/day, the “EPR (%)” value is 85.80 ± 0.14^b %, the “EW (g)” value is 55.49 ± 0.38^b g and the feed-to-egg ratio worked out at 2.04 ± 0.02.
For the compound `NCCCC(=O)NC(CC(=O)O)C(=O)O` (racemic) [Compound 9, N-(4-aminobutyryl)-DL-aspartic acid], in the data set with weaned piglets, the “increase” value came out at 8.1%, the “ADFI (g/d*each pig)” value is 311 ± 18^a g/d*each pig, the “ADG (g/d*each pig)” value was 146 ± 4^abc g/d*each pig and the FCR is given as 2.13 ± 0.06. Also, in data set [1] (2% premix), the “Detection result … (%) Day 5” value was found to be 99.41% and the “Detection result … (%) Day 10” value is recorded as 97.68%. Moreover, in data set [1] (Raw material), the “Detection result … (%) Day 5” value was 98.46% and the “Detection result … (%) Day 10” value was found to be 98.09%. In addition, in the data set with laying hens, the “ADFI” value came out at 113.64 ± 2.43 g/day, the “EPR (%)” value is recorded as 86.09 ± 0.18^b %, the “EW (g)” value is reported as 55.44 ± 0.37^b g and the feed-to-egg ratio came out at 2.05 ± 0.04.
Consider `NCC(=O)NC(CC(=O)O)C(=O)O` (racemic) [Compound 8, N-glycyl-DL-aspartic acid], for which, in the data set on weaned piglets, the “increase” value was 5.2%, the “ADFI (g/d*each pig)” value is recorded as 305 ± 12^a g/d*each pig, the “ADG (g/d*each pig)” value is recorded as 142 ± 1^ab g/d*each pig and the FCR stood at 2.15 ± 0.07. In data set [1] (2% premix), the “Detection result … (%) Day 5” value was found to be 98.57% and the “Detection result … (%) Day 10” value was 97.32%. In addition, in data set [1] (Raw material), the “Detection result … (%) Day 5” value worked out at 99.78% and the “Detection result … (%) Day 10” value stood at 98.02%. In the data set on laying hens, the “ADFI” value was 113.01 ± 2.31 g/day, the “EPR (%)” value was 84.86 ± 0.24^c %, the “EW (g)” value is recorded as 54.98 ± 0.39^a g and the feed-to-egg ratio worked out at 2.06 ± 0.03.

Source of the values: patent US12478081B2, “Application of aspartic acid derivative in preparing animal feed additive” (ANIPHA TECHNOLOGIES PTY LTD, priority 2018, dated 2025).
